Results taken from patent EP0248597A2, “Phospholipase A2 inhibitors and methods of synthesis” (ORTHO PHARMACEUTICAL CORPORATION, priority 1986, dated 1987).
Several values for one entry are separate records, joined by “and”; a condition that tells them apart may be missing. Equal entries are not always repeated. Structures can show the parent of a compound that is named as a salt.

What was measured:
[1] = biological target: T1, Porcine Pancreas Phospholipase A2 (Sus scrofa, UniProt P00592); experiment: Phospholipase A2 assay (hydrolysis of 14C-arachidonyl phosphatidyl choline), porcine pancreas enzyme; assay type: biochemical
T1 construct: purchased Sigma Chemical Co., St. Louis, MO; host or cells: porcine pancreas
Experimental: (§1) The following procedure is a modification of the Phospholipase A₂ assay that was first described by Costentino et al., Prostaglandins, 22, 309 (1981) and is the method used herein to determine rat stomach and porcine pancreas phospholipas A₂ activity.
(§2) A suspension of phospholipase A₂ (Sigma Chemical Co., St. Louis, MO) is diluted with 25 millimolar (mM) Tris HCl buffer containing 1 mM calcium chloride to a final concentration of 10 micrograms of protein per milliliter (ml). Aliquots of 0.1 ml (7.1 units) of the enzyme suspension are added to each assay tube. Test compounds are added tin 0.01 ml aliquots in dimethyl sulfoxide or methanol and the volume is brought to 0.15 ml with the buffer. A preincubation is carried out at 37°C for 5 minutes. To start the reaction, 0.01 microcuries (0.179 nanomoles) of 2-arachidonyl (1-¹⁴C) 1-palmitoyl phosphatidyl choline (New England Nuclear, Boston, MA) are added to each tube, including three blank tubes containing no enzyme, and the incubation is carried out for 10 minutes at 37°C. The reaction is stopped with the addition of 0.07 ml of 1N HCl to each tube. Blanks, controls and each concentration of test compound are assayed in triplicate.
(§3) The reaction mixtures are extracted with ethyl acetate, and the organic and aqueous phases are separated by low speed centrifugation. The organic phase is dried under nitrogen and is then resuspended in 0.01 ml ethyl acetate. Arachidonic acid (50 micrograms in 0.01 ml methanol) is added to each tube as a carrier and standard. The entire mixture is spotted on silica gel G thin layer chromatography plates that are developed in a solvent system of ethyl acetate:acetic acid (99:1 by volume). […] Ten ml of Aquasol-2 (American Cyanamid Co., Wayne, NJ) are added to each vial, and the radioactivity is counted by liquid scintillation spectrometry.
(§4) The data are calculated as the ratio in percent of unesterified arachidonic acid to total radioactivity recovered. The potency of a compound is preferably determined by its IC₅₀ value (the concentration required to inhibit the reaction by 50 percent). […]

[2] = tested on: experimentally-induced inflammation in the mouse ear; experiment: Mouse ear edema assay (topical anti-inflammatory activity); assay type: in vivo
Experimental: Compound 2 was also studied in a mouse ear edema assay to provide a measure of topical anti-inflammatory activity.
The topical antiinflammatory activity of a compound is determined by its ability to inhibit an experimentally-induced inflammation in the mouse ear. Croton oil, or 12-0-tetradecanoylphorbol acetate in acetone is dispensed onto the dorsum of one ear of the mouse. Five to six hours later the mice are sacrificed. A section of each ear is removed with a 7 mm cork borer and weighed on a electronic balance. The difference in weight between treated and untreated ears is determined. Compounds to be evaluated for antiinflammatory activity are incorporated in the croton oil irritant mixture, or applied in an appropriate vehicle.

[3] = biological target: Rat Stomach Phospholipase A2 (Rattus norvegicus, UniProt P04055); experiment: Phospholipase A2 assay (hydrolysis of 14C-arachidonyl phosphatidyl choline), rat stomach enzyme; assay type: biochemical; conditions: at 10^-4M; read-out: Percent Inhibition of the Hydrolytic Activity of Rat Stomach Phospholipase A2
Experimental: as §1, §2, §3, §4

T1 sequence (P00592 23-146): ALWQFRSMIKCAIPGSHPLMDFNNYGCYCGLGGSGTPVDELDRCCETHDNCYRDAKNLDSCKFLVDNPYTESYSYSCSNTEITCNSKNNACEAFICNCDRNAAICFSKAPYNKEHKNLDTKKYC
Sequence of Rat Stomach Phospholipase A2 (P04055 23-146): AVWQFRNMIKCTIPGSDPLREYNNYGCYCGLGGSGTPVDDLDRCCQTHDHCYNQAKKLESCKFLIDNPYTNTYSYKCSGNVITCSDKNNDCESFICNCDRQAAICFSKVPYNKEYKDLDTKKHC

In the case of CCCCCCCCCCCC/C=C\[C@@H](SC[C@H](NC(C)=O)C(=O)OC)[C@@H](O)CCCCO [Compound 2, Methyl N-acetyl-S-6[(5S,6R)-1,5-dihydroxy-7(Z)-eicosenyl]-(R)-cysteinate], the “Percent Inhibition of the Hydrolytic Activity of Porcine Pancreas Phospholipase A2” value ([1]; at 10^-5 Molar (M), three independent trials, 10 µM) was 62% and 86% and 68%, the “Inhibition (percent) Mouse No. 1” value ([2]; 50 micrograms) was 33% and the “Inhibition (percent) Mouse No. 2” value ([2]; 50 micrograms) was 68%. The “Inhibition (percent) Mouse No. 1” value ([2]; 100 micrograms) was 53%, the “Inhibition (percent) Mouse No. 2” value ([2]; 100 micrograms) was 72% and the “Inhibition (percent) Mouse No. 1” value ([2]; 200 micrograms) was 62%. For the same molecule, the “Inhibition (percent) Mouse No. 2” value ([2]; 200 micrograms) was 82%, the “Inhibition (percent) Mouse No. 1” value ([2]; 400 micrograms) was 75% and the “Inhibition (percent) Mouse No. 2” value ([2]; 400 micrograms) was 80%.
CCCCCCCCCCCC/C=C\[C@@H](SC[C@H](NC(=O)CC[C@H](N)C(=O)O)C(=O)NCC(=O)O)[C@@H](O)CCCCOC1CCCCO1 (stereo partly drawn) [Compound 3, S-6-[(5S,6R)-5-hydroxy-1-(2-tetrahydropyranyloxy)-7(Z)-eicosenyl] glutathione triethylammonium salt dihydrate] gave an inhibition at 100 µM [3] of 55%.
In the case of CCCCCCCCCCCC/C=C\[C@@H](SC[C@H](N)C(=O)O)[C@@H](O)CCCCO [Compound 4, (5S,6R)-6-[S-(R)-cysteinyl] -7(Z)-eicosen-1,5-diol hemihydrate], the inhibition at 100 µM [3] was 40%.
CCCCCCCCCCCC/C=C\[C@@H](SC[C@H](NC(C)=O)C(=O)OC)C(CCCCO)=NO [Compound 14, Methyl N-acetyl-S-6-[(5S,6R)-1-hydroxy-5-oximino-7(Z)-eicosenyl]-(R)-cysteinate] was tested, and the inhibition at 100 µM [3] was 58%, the “Percent Inhibition of the Hydrolytic Activity of Porcine Pancreas Phospholipase A2” value ([1]; at 10^-4M, 100 µM) was 73% and the inhibition at 100 µM ([1]; at 10^-4M, read-out: Percent Inhibition of the Hydrolytic Activity of Porcine Pancreas Phospholipase A2) was 72%.
